pIC50: −log10 of the molar value. Where two headings read alike, the source gives them in different places.
Key:
[1] = biological target: VIM-1 (Pseudomonas aeruginosa (strain ATCC 15692 / DSM 22644 / CIP 104116 / JCM 14847 / LMG 12228 / 1C / PRS 101 / PAO1), UniProt A0A0F7KYQ8); assay: Enzyme activity: determination of IC50, fluorescence assay with CCF2-FA substrate (VIM-1); format: biochemical
[2] = tested on: Serratia marcescens expressing IMP-1 (CL5741); assay: Antibiotic potentiation activity: synergistic concentration (MITC95) with imipenem, OD600 growth; format: cell-based
Procedure, shortened: (§1)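 Compound activity is tested with and without imipenem, which is present at 4 μg/ml (or 1 μg/ml) in the well. Bacteria in 1.1× CAMHB are incubated 22–24 h at 35 °C; absorbance gives the growth endpoint.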

[3] = tested on: Escherichia coli expressing NDM-1 (CLB30016); assay: as above; format: cell-based
Procedure, shortened: as §1

[4] = tested on: Klebsiella pneumoniae expressing VIM-1 (IHMA599644); assay: as above; format: cell-based
Procedure, shortened: as §1

[5] = biological target: IMP-1 (Serratia marcescens, UniProt P52699); assay: biochemical; format: biochemical; details: read-out: IMP-1 IC50
IMP-1, sequence (P52699 whole entry, looked up): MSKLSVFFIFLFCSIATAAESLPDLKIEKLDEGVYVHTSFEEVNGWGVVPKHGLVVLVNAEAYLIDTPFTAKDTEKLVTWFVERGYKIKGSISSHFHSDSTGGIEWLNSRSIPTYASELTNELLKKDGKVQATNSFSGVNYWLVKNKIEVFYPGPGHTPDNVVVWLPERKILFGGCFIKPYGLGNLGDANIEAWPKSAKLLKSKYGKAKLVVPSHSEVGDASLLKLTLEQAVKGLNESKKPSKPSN

[6] = biological target: NDM-1 (Klebsiella pneumoniae, UniProt C7C422); assay: biochemical; format: biochemical; details: read-out: NDM-1 IC50
NDM-1, sequence (C7C422 whole entry, looked up, species assumed): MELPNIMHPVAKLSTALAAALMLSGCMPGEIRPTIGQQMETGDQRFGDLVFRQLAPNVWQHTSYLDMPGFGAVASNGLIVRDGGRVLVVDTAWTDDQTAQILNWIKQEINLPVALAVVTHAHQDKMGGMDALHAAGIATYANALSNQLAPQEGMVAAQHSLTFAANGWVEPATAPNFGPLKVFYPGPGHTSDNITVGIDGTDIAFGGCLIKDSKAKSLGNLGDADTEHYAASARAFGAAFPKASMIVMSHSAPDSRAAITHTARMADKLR

[7] = VIM-1 enzyme, CCF2-FA fluorescence assay, read-out: VIM-1 IC50
[8] = Serratia marcescens expressing IMP-1 (CL5741), 95% growth inhibition
[9] = Escherichia coli expressing NDM-1 (CLB30016), 95% growth inhibition
[10] = Klebsiella pneumoniae expressing VIM-1 (IHMA599644), 95% growth inhibition
[11] = IMP-1 enzyme, CCF2-FA fluorescence assay
[12] = NDM-1 enzyme, CCF2-FA fluorescence assay
[13] = fluorescence assay with CCF2-FA substrate, read-out: VIM-1 IC50
[14] = CL5741 (IMP-1), 95% inhibition of bacterial growth
[15] = CLB30016 (NDM-1), 95% inhibition of bacterial growth
[16] = IHMA599644 (VIM-1), 95% inhibition of bacterial growth
[17] = fluorescence assay with CCF2-FA substrate
[18] = VIM-1 enzyme, CCF2-FA substrate, read-out: VIM-1 IC50
[19] = Serratia marcescens CL5741 (IMP-1), 95% growth inhibition
[20] = (CLB30016, NDM-1), 95% growth inhibition
[21] = Klebsiella pneumoniae IHMA599644 (VIM-1), 95% growth inhibition
[22] = IMP-1 enzyme, CCF2-FA substrate
[23] = NDM-1 enzyme, CCF2-FA substrate
[24] = concentration giving 95% inhibition of bacterial growth

Row | Structure (SMILES) | pIC50 [1, 7] | Serratia marcescens MITC95 [2, 8] [µM] | Escherichia coli MITC95 [3, 9] [µM] | Klebsiella pneumoniae MITC95 [4, 10] [µM] | pIC50 [5, 11] | pIC50 [6, 12] | pIC50 [1, 18] | Serratia marcescens MITC95 [2, 19] [µM] | Escherichia coli MITC95 [3, 20] [µM] | Klebsiella pneumoniae MITC95 [4, 21] [µM] | pIC50 [5, 22] | pIC50 [6, 23] | further results
1 | NC[C@H]1CC[C@H](Cc2ccc(-c3ccc(C4CCNCC4)cc3)c(-c3nn[nH]n3)c2S(N)(=O)=O)CC1 [Example 457, 4-(((1r,4r)-4-(aminomethyl)cyclohexyl)methyl)-4′-(piperidin-4-yl)-2-(2H-tetrazol-5-yl)-[1,1′-biphenyl]-3-sulfonamide] | 9.10 | 0.1953 | 0.3906 | 1.172 | 8.52 | 8.96 |  |  |  |  |  |  | 
2 | NS(=O)(=O)c1c(C(F)(F)F)ccc(N2CCN(CCCO)CC2)c1-c1nnn[nH]1 [Example 763, 3-[4-(3-hydroxypropyl)piperazin-1-yl]-2-(1H-tetrazol-5-yl)-6-(trifluoromethyl) benzenesulfonamide] |  |  |  |  |  |  |  |  |  |  |  |  | pIC50 [1, 13]: 7.13; Serratia marcescens MITC95 [2, 14]: 3.125 µM; Escherichia coli MITC95 [3, 15]: 1.563 µM; Klebsiella pneumoniae MITC95 [4, 16]: 50 µM; pIC50 [5, 17]: 7.33; pIC50 [6, 17]: 7.42
3 | NS(=O)(=O)c1cccc(-c2ccc(CN[C@H]3COC[C@@H]3O)cc2)c1-c1nnn[nH]1 [Example 365, 4′-({[(3S,4R)-4-hydroxytetrahydrofuran-3-yl]amino}methyl)-2-(1H-tetrazol-5-yl)biphenyl-3-sulfonamide] | 6.41 | 2.344 | 1.563 | 75 | 7.28 | 8.27 |  |  |  |  |  |  | 
4 | Nc1nc2c(-c3ccc(CCC(=O)O)c(S(N)(=O)=O)c3-c3nn[nH]n3)cccc2s1 [Example 538, 3-(4-(2-Aminobenzo[d]thiazol-4-yl)-2-sulfamoyl-3-(2H-tetrazol-5-yl)phenyl)propanoic acid] |  |  |  |  |  |  | 7.39 | 50 | 6.25 | 100 | 7.27 | 8.85 | 
5 | CN1CCC(NCc2ccc(-c3cccc(S(N)(=O)=O)c3-c3nnn[nH]3)cc2)C1 (stereo not drawn) [Example 332, 4′-(((1-methylpyrrolidin-3-yl)amino)methyl)-2-(1H-tetrazol-5-yl)-[1,1′-biphenyl]-3-sulfonamide] | 6.26 | 3.125 | 0.5859 | 100 | 6.72 | 7.94 |  |  |  |  |  |  | 
6 | NS(=O)(=O)c1cccc(-c2ccc(CNC(CO)CO)cc2)c1-c1nnn[nH]1 [Example 374, 4′-({[2-hydroxy-1-(hydroxymethyl)ethyl]amino}methyl)-2-(1H-tetrazol-5-yl)biphenyl-3-sulfonamide] | 6.56 | 3.125 | 0.7813 | 37.5 | 6.58 | 7.80 |  |  |  |  |  |  | 
7 | NS(=O)(=O)c1c(C(F)(F)F)ccc(-c2cccc3c[n+]([O-])ccc23)c1-c1nn[nH]n1 [Example 516, 5-(3-Sulfamoyl-2-(2H-tetrazol-5-yl)-4-(trifluoromethyl)phenyl)isoquinoline 2-oxide] |  |  |  |  |  |  | 9.56 | 0.7813 | 6.25 | 6.25 | 7.90 | 8.62 | 
8 | N#Cc1cc(-c2ccc(C(F)(F)F)c(S(N)(=O)=O)c2-c2nnn[nH]2)c2[nH]c(N)nc2c1 [Example 569, 3-(2-amino-5-cyano-1H-benzo[d]imidazol-7-yl)-2-(1H-tetrazol-5-yl)-6-(trifluoromethyl)benzenesulfonamide] |  |  |  |  |  |  | 9.51 | 3.125 | 6.25 | 6.25 | 8.79 | 9.67 | 
9 | NCc1ccc2cc(-c3cccc(S(N)(=O)=O)c3-c3nn[nH]n3)ccc2n1 [Example 286, 3-(2-(aminomethyl)quinolin-6-yl)-2-(2H-tetrazol-5-yl)benzenesulfonamide] | 7.90 | 3.125 | 0.7813 | 3.125 | 6.69 | 8.21 |  |  |  |  |  |  | 
10 | NS(=O)(=O)c1c(C(F)(F)F)ccc(-c2ccc3c(c2)CNCC3)c1-c1nnn[nH]1 [Example 720, 3-(1,2,3,4-tetrahydroisoquinolin-7-yl)-2-(1H-tetrazol-5-yl)-6-(trifluoromethyl)benzenesulfon-amide] |  |  |  |  |  |  | 8.98 | 12.5 | 6.25 | 3.125 | 7.79 | 8.52 | 
11 | NS(=O)(=O)c1cccc(C2CCCc3ncccc32)c1-c1nn[nH]n1 (stereo not drawn) [Example 519, 3-(5,6,7,8-Tetrahydroquinolin-5-yl)-2-(2H-tetrazol-5-yl)benzenesulfonamide] |  |  |  |  |  |  |  | 100 | 1.563 | 37.5 | 6.12 | 8.42 | pIC50 ([1]; VIM-1 IC50, VIM-1 enzyme, CCF2-FA substrate): 7.61
12 | NS(=O)(=O)c1cccc(-c2cnc3n2CCCC3)c1-c1nnn[nH]1 [Example 419, 3-(5,6,7,8-tetrahydroimidazo[1,2-a]pyridin-3-yl)-2-(1H-tetrazol-5-yl)benzenesulfonamide] | 6.33 | 25 | 0.25 | 25 | 5.98 | 7.28 |  |  |  |  |  |  | 
13 | NS(=O)(=O)c1cccc(-c2cccc3sc(Br)nc23)c1-c1nnn[nH]1 [Example 421, 3-(2-Bromobenzo[d]thiazol-4-yl)-2-(1H-tetrazol-5-yl)benzenesulfonamide] | 8.64 | 25 | 3.125 | >200 | 7.72 | 9.54 |  |  |  |  |  |  | 
14 | NS(=O)(=O)c1c(C(F)(F)F)ccc(N2CCC(c3ccc(CO)cc3)CC2)c1-c1nn[nH]n1 [Example 450, 3-(4-(4-(hydroxymethyl)phenyl)piperidin-1-yl)-2-(2H-tetrazol-5-yl)-6-(trifluoromethyl)benzenesulfonamide] | 8.74 | 0.03125 | 18.75 | 75 | 8.89 | 8.79 |  |  |  |  |  |  | 
15 | NS(=O)(=O)c1cccc(CC2CCCCC2)c1-c1nnn[nH]1 [Example 153, 3-(cyclohexylmethyl)-2-(1H-tetrazol-5-yl)benzenesulfonamide] |  |  |  |  |  |  |  |  |  |  |  |  | pIC50 ([1]; VIM-1 IC50, fluorescence assay with CCF2-FA substrate): 6.60; Serratia marcescens expressing IMP-1 (CL5741) MITC95 [2, 24]: 2.344 µM; Escherichia coli expressing NDM-1 (CLB 30016) MITC95 [3, 24]: 4.688 µM; Klebsiella pneumoniae expressing VIM-1 (IHMA 599644) MITC95 [4, 24]: >200 µM; pIC50 [5, 17]: 7.15; pIC50 [6, 17]: 8.08
16 | NS(=O)(=O)c1c(C(F)(F)F)ccc(-c2ccc(C3CCN(C[C@@H]4CNCCO4)CC3)cc2)c1-c1nnn[nH]1 [Example 678, 4′-{1-[(2S)-morpholin-2-ylmethyl]piperidin-4-yl}-2-(1H-tetrazol-5-yl)-4-(trifluoromethyl)biphenyl-3-sulfonamide] |  |  |  |  |  |  | 7.68 | 6.25 | 9.375 | 150 | 8.30 | 7.82 | 
17 | NCCC1CCC(N2CCC(c3ccc(-c4ccc(C(F)(F)F)c(S(N)(=O)=O)c4-c4nnn[nH]4)cc3)CC2)CC1 (stereo not drawn) [Example 792, 4′-{1-[4-(2-aminoethyl)cyclohexyl]piperidin-4-yl}-2-(1H-tetrazol-5-yl)-4-(trifluoromethyl)biphenyl-3-sulfonamide] |  |  |  |  |  |  |  |  |  |  |  |  | pIC50 [1, 13]: 8.36; Serratia marcescens MITC95 [2, 14]: 3.125 µM; Escherichia coli MITC95 [3, 15]: 3.125 µM; Klebsiella pneumoniae MITC95 [4, 16]: 25 µM; pIC50 [5, 17]: 8.81; pIC50 [6, 17]: 8.14
18 | N=C(N)NC1CCC(CCc2ccc(C(F)(F)F)c(S(N)(=O)=O)c2-c2nn[nH]n2)CC1 (stereo not drawn) [Example 524, 3-(2-(4-Guanidinocyclohexyl)ethyl)-2-(2H-tetrazol-5-yl)-6-(trifluoromethyl)benzenesulfonamide] |  |  |  |  |  |  | 8.98 | 6.25 | 12.5 | 12.5 | 8.29 | 7.61 | 
19 | NS(=O)(=O)c1nccc(-n2cnc3ccccc32)c1-c1nn[nH]n1 [Example 246, 4-(1H-benzo[d]imidazol-1-yl)-3-(2H-tetrazol-5-yl)pyridine-2-sulfonamide] | 7.11 | 150 | 0.5859 | 12.5 | 5.55 | 7.52 |  |  |  |  |  |  | 

From US9708336B2, “Metallo-beta-lactamase inhibitors” (priority 2014, dated 2017)
